Data: article PMC12652692, “Synthesis and In Vitro Anticancer Evaluation of Novel Phosphonium Derivatives of Chrysin” (International Journal of Molecular Sciences, 2025)

Key:
Assay type in all cases: cell-based
[1] = test system: 786-0; assay: NCI60 one-dose screen; conditions: Homo sapiens; 786-0, 10 μM; read-out: Growth percent
Outline: (§1)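 Cells grown in RPMI 1640/5% FBS were treated once at 10 μM for 48 h; sulforhodamine B staining (515 nm) measured cell mass. Reported growth percent is normalized to untreated control and to cells at drug addition, negative numbers denoting cell kill.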

[2] = test system: ACHN; assay: NCI60 one-dose screen; conditions: Homo sapiens, read-out: Growth percent
Outline: as §1

[3] = test system: CAKI-1; assay: NCI60 one-dose screen; conditions: Homo sapiens; CAKI-1, 10 μM; read-out: Growth percent
Outline: as §1

[4] = test system: DU-145; assay: NCI60 one-dose screen; conditions: Homo sapiens; DU-145, 10 μM; read-out: Growth percent
Outline: as §1

[5] = test system: HCC-2998; assay: NCI60 one-dose screen; conditions: Homo sapiens; HCC-2998, 10 μM; read-out: Growth percent
Outline: as §1

[6] = test system: HL-60(TB); assay: NCI60 one-dose screen; conditions: Homo sapiens, read-out: Growth percent
Outline: as §1

[7] = test system: HOP-62; assay: NCI60 one-dose screen; conditions: Homo sapiens; HOP-62, 10 μM; read-out: Growth percent
Outline: as §1

[8] = test system: KM12; assay: NCI60 one-dose screen; conditions: Homo sapiens; KM12, 10 μM; read-out: Growth percent
Outline: as §1

[9] = test system: LOX IMVI; assay: NCI60 one-dose screen; conditions: Homo sapiens, read-out: Growth percent
Outline: as §1

[10] = test system: M14; assay: NCI60 one-dose screen; conditions: Homo sapiens; M14, 10 μM; read-out: Growth percent
Outline: as §1

[11] = test system: MDA-MB-231/ATCC; assay: NCI60 one-dose screen; conditions: Homo sapiens, read-out: Growth percent
Outline: as §1

[12] = test system: MDA-MB-468; assay: NCI60 one-dose screen; conditions: Homo sapiens; MDA-MB-468, 10 μM; read-out: Growth percent
Outline: as §1

[13] = test system: OVCAR-5; assay: NCI60 one-dose screen; conditions: Homo sapiens; OVCAR-5, 10 μM; read-out: Growth percent
Outline: as §1

[14] = test system: SF-539; assay: NCI60 one-dose screen; conditions: Homo sapiens; SF-539, 10 μM; read-out: Growth percent
Outline: as §1

[15] = test system: SN12C; assay: NCI60 one-dose screen; conditions: Homo sapiens, read-out: Growth percent
Outline: as §1

[16] = test system: SNB-75; assay: NCI60 one-dose screen; conditions: Homo sapiens; SNB-75, 10 μM; read-out: Growth percent
Outline: as §1

[17] = test system: U251; assay: NCI60 one-dose screen; conditions: Homo sapiens, U-251; U251, 10 μM; read-out: Growth percent
Outline: as §1

[18] = test system: UO-31; assay: NCI60 one-dose screen; conditions: Homo sapiens; UO-31, 10 μM; read-out: Growth percent
Outline: as §1

[19] = test system: 60 human cancer cell lines; assay: NCI60 one-dose screen, overall mean; conditions: mean over all 60 cell lines, read-out: Mean growth percent
Description: The screening results are presented in the Supplementary Materials (Table S1), where the cytotoxicity was determined for the 10 µM concentration. […] The negative numbers indicate significant decreases in the cell number. […] Compared to the reference chrysin (2), all phosphonium hybrids (3a–h) had significant antiproliferative activities. […] At the same time, it should be noted that more than 60% average reduction was also obtained in the case of the other examined conjugates (3a–h).
A detailed description of the NCI screening procedures, including the one-dose and five-dose tests, can be found in the Supplementary Materials, on the website of NCI [39], and in our previous work.
A detailed description of the NCI screening procedures can also be found on the website of NCI [39], and in our […]
All candidates were examined at first at a single high dose (10 μM) in the full NCI60 cell panel. The value reported for the one-dose test is growth relative to the no-drug control and relative to the time zero number of cells. This made possible the disclosure of both growth inhibition (numbers between 0 and 100) and lethality (numbers less than 0). For example, a value of 100 means no growth inhibition. A value of 20 would mean 80% growth inhibition. A value of 0 means no net growth over the course of the analysis. A value of −20 would mean 20% lethality. A value of −100 means all cells are dead. […]
concentration levels. The human tumor cell lines of the cancer screening panel were grown in RPMI 1640 medium containing 5% fetal bovine serum and 2 mM l-glutamine. Characteristically, cells were injected in 96-well microtiter plates in 0.1 mL at plating densities ranging from 5000 to 40,000 cells/well, depending on the doubling time of individual cell lines. After cell inoculation, the microtiter plates were incubated at 37 °C, 5% carbon dioxide, 95% air, and 100% relative humidity for 24 hours before the addition of tested compounds. After 24 hours, 2 plates of each cell line were fixed in situ with Cl3COOH (TCA), to represent a measurement of the cell population for each cell line at the time of drug addition (tz). Tested compounds were solubilized in DMSO at 400-fold the desired final maximum test concentration and stored frozen before application. In the course of the drug addition, an aliquot of frozen concentrate was thawed and diluted to twice the desired final maximum test concentration with a complete medium containing 50 μg mL−1 gentamicin. Additional four, 10-fold or ½ log serial dilutions were produced to furnish a total of five drug concentrations plus control. Aliquots of 0.1 mL of these different drug dilutions were added to the appropriate microtiter wells already containing 0.1 mL of medium, resulting in the required final drug concentrations.
Following drug addition, the plates were incubated at 37 °C, 5% carbon dioxide, 95% air, and 100% relative humidity for an additional 48 hours. For adherent cells, the test was finished by the addition of cold Cl3COOH. Cells were fixed in situ by the addition of 50 μL of cold 50% (w/v) Cl3COOH, and incubated at 4 °C for 1 hour. The supernatant was discarded, and the plates were washed with H2O (5×) and dried in air. Sulforhodamine B (SRB) solution (0.1 mL) at 0.4% (w/v) in 1% CH3COOH was added to each well, and plates were incubated at RT for 10 min. After staining, the unbound dye was removed by washing five times with 1% CH3COOH, and the plates were dried in the air. The bound stain is afterward solubilized with a 10 mM trizma base, and the absorbance is read on an automated plate reader at λ = 515 nm. Utilizing the seven absorbance measurements [time zero (tz), control growth (c), and test growth in the presence of the drug at the five concentration levels (ti)], the percentage growth was determined at each of the drug concentration levels. Growth inhibition (%) was calculated as:
[(ti − tz)/(c − tz)] × 100, for concentrations where ti ≥ tz (1) […]

| Structure (SMILES) | activity at 10 µM [1] | activity at 10 µM [2] | activity at 10 µM [3] | activity at 10 µM [4] | activity at 10 µM [5] | activity at 10 µM [6] | activity at 10 µM [7] | activity at 10 µM [8] | activity at 10 µM [9] | activity at 10 µM [10] | activity at 10 µM [11] | activity at 10 µM [12] | activity at 10 µM [13] | activity at 10 µM [14] | activity at 10 µM [15] | activity at 10 µM [16] | activity at 10 µM [17] | activity at 10 µM [18] | activity at 10 µM [19] |
| --- | --- | --- | --- | --- | --- | --- | --- | --- | --- | --- | --- | --- | --- | --- | --- | --- | --- | --- | --- |
| O=c1cc(-c2ccccc2)oc2cc(OCCCC[P+](c3ccccc3)(c3ccccc3)c3ccccc3)cc(O)c12 [3a] | -69.5% | -100% | -97.1% | -94.8% | -93.1% | -51.5% | -63.6% | -85.2% | -90.1% | -70.1% | -32.2% | -84.9% | -97.7% | -95.7% | -49.5% | -80.7% | -57.4% | -97.1% | -74.3% |
| Cc1ccc([P+](CCCCOc2cc(O)c3c(=O)cc(-c4ccccc4)oc3c2)(c2ccc(C)cc2)c2ccc(C)cc2)cc1 [3b] | -69.8% | -92.8% | -90.4% | -85.9% | -88.7% | -60.4% | -62% | -75.5% | -91.2% | -75.2% | -90.7% | -87% | -80.3% | -80.5% | -84.4% | -78.4% | -50% | -82.5% | -69.9% |
| COc1ccc([P+](CCCCOc2cc(O)c3c(=O)cc(-c4ccccc4)oc3c2)(c2ccc(OC)cc2)c2ccc(OC)cc2)cc1 [3c] | -65.3% | -63.5% | -75.5% | -90.7% | -72.9% | -31.2% | -81.1% | -86.2% | -78.8% | -1.24% | -72.1% | -77.4% | -59.3% | -66.9% | -59% | -51.1% | -92.6% | -89.9% | -68.3% |
| O=c1cc(-c2ccccc2)oc2cc(OCCCC[P+](c3ccc(F)cc3)(c3ccc(F)cc3)c3ccc(F)cc3)cc(O)c12 [3d] | -56.5% | -85.4% | -93.6% | -79.2% | -89% | -46.9% | -70.8% | -81.6% | -93.7% | -75.5% | -95% | -85.7% | -89.9% | -89.6% | -82.1% | -78% | -40.7% | -86.9% | -69.5% |
| O=c1cc(-c2ccccc2)oc2cc(OCCCC[P+](C3CCCCC3)(C3CCCCC3)C3CCCCC3)cc(O)c12 [3e] | -80.1% | -72.5% | -90.8% | -96.1% | -84.7% | -20.6% | -82.6% | -92% | -90.5% | -82.2% | -81.6% | -83.5% | -60.5% | 87.1% | -57% | -80.5% | -95.5% | -92.5% | -76% |
| Cc1ccccc1[P+](CCCCOc1cc(O)c2c(=O)cc(-c3ccccc3)oc2c1)(c1ccccc1C)c1ccccc1C [3g] | -98.1% | -97% | -97.2% | -97.1% | -98.2% | -97.4% | -98.3% | -95.8% | -97.5% | -97.5% | – | -99.4% | – | -97.7% | -97% | -99% | -97% | – | -97.7% |
